These results are taken from PMC5783306 (Nature, 2017).

One series deals with T1, TAX-4 (Caenorhabditis elegans, UniProt Q03611).
T1 sequence (Q03611 1-733): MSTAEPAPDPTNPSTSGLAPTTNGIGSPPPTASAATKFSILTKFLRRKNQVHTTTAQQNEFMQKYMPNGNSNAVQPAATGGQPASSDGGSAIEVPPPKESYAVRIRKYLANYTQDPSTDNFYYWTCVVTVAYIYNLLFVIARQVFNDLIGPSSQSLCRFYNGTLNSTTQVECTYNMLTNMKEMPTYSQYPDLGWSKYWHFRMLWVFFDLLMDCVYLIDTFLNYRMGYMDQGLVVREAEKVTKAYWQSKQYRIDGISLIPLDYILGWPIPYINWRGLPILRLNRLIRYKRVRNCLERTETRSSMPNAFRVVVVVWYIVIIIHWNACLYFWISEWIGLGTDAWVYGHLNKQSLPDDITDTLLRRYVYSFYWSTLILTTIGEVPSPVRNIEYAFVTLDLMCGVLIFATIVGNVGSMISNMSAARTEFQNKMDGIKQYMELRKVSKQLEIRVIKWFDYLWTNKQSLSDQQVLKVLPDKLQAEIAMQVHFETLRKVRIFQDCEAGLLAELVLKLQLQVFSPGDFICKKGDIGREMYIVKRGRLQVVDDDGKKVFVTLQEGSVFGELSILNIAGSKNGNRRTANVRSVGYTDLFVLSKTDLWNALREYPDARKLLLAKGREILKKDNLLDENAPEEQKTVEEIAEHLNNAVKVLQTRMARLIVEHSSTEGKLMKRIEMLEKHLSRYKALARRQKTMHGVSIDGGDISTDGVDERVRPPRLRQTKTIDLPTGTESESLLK
The series is described as follows: cryo-EM structure at […] Å of cGMP-bound channel. It is filed as cell-based.

The series “cryo-EM structure” deals with the molecule itself. As to the kind of experiment: cryo-EM structure.

For `Nc1nc2c(ncn2[C@@H]2O[C@@H]3COP(=O)(O)O[C@H]3[C@H]2O)c(=O)[nH]1` [cGMP], the EC50 (as a rule, the concentration at which the effect is half-maximal) at TAX-4 amounted to 160 nM.

B1: TAX-4 (cyclic nucleotide-gated channel CNGA subunit from C. elegans), cGMP-bound (natural protein, UniProt Q03611 1-733, looked up)
chain: T1 sequence (Q03611 1-733)
In the case of B1, the stoichiometry N (usually the number of molecules, sites or subunits per partner or assembly) in the series “cryo-EM structure” came to 4.
